What was measured:
J82 bladder cancer cells = test: Capture of cultured J82 tumor cells from urine with biotinylated cell binding peptide on streptavidin magnetic beads; type: cell-based, human; conditions: for J82 bladder tumor cells: cells captured on peptide-magnetic bead conjugate from 5 ml human urine, leukocyte:J82 mixture 12.5:1 to 20:1, unit not given; for Enrichment Factor: ratio J82:total leukocytes after capture divided by ratio before capture, urine
Description: (§1) A green fluorescent leukocyte preparation was prepared as follows. Red blood cells in 2 ml anti-coagulated human blood were lysed by the addition of 30 ml of a hypotonic medium and incubation for 10 min at room temperature. Intact cells and debris were recovered by centrifugation at 300×g. Pelleted material was resuspended with PBS/0.5% BSA/2 mM EDTA and filtered through a 100 micron nylon filter. Leukocytes (3×10^6) were labeled with 5 μM Cell Tracker Green CMFDA (LIFE TECHNOLOGIES/MOLECULAR PROBES) in EMEM growth medium without serum for 45 min. Excess dye was removed by centrifugation at 500×g for 5 min and washing with PBS/0.5% BSA/2 mM EDTA and cells were exposed to 10% serum containing medium for 45 min to allow dye conversion.
Red fluorescent J82 cells were prepared as follows: An 80% confluent culture of J82 bladder cancer cells was labeled with 5 μM Cell Tracker Red CMPTX (LIFE SCIENCES/MOLECULAR PROBES) in EMEM growth medium without serum for 90 min. Excess dye was removed by washing the flask with EMEM/10% FBS and cells were exposed to 10% serum containing medium for 1.5 h for dye conversion. The cells were then washed with PBS and released from the flask with 0.05% trypsin. Cells were recovered and trypsin removed by centrifugation at 500×g followed by washing in PBS/0.5% BSA/2 mM EDTA.
Biotinylated peptides SEQ ID NO: 1 and SEQ ID NO: 10 were synthesized with a C-terminal Peg10 group attached to a lysine as described in Example 1. The biotinylated peptides were conjugated to magnetic microbeads (MILTENYI) by incubating 400 μl of bead suspension in 20 μM peptide for 30 min on ice with occasional mixing. Unbound peptide was removed by binding the beads to a Miltenyi MS column placed in a magnetic field. Beads were washed with PBS/0.5% BSA/2 mM EDTA and peptide conjugated beads released by removing the Miltenyi MS column from the magnetic field. A mixture of green fluorescent leukocytes and red fluorescent J82 bladder cancer cells was variously prepared in ratios between 12.5:1 and 20:1. The cell mixture (725,000 cells total) was added to 5 ml human urine and then 250 μl of peptide-magnetic bead conjugate. The whole was incubated for 45 min at room temperature with rotation.
To capture cells the peptide-magnetic bead cell mixture was passed over a Miltenyi MS column pre-equilibrated with PBS/0.5% BSA/2 mM EDTA and held in a magnetic field. Unbound cells were washed out with PBS/0.5% BSA/2 mM EDTA and retained. Cells bound to the peptide-magnetic bead conjugate were released from the Miltenyi MS column by removing the column from the magnetic field. […] The data in FIG. 3 and Table 2 below show a 463-fold to 588-fold enrichment of J82 cells from leukocytes in urine. […]

blood leukocytes = test: Capture of leukocytes from urine with biotinylated cell binding peptide on streptavidin magnetic beads (same test, obscuring cells); type: cell-based; conditions: cells captured on peptide-magnetic bead conjugate from 5 ml human urine; leukocyte:J82 mixture 12.5:1 to 20:1; unit not given
Description: as §1
Red fluorescent J82 cells were prepared as follows: An 80% confluent culture of J82 bladder cancer cells was labeled with 5 μM Cell Tracker Red CMPTX (LIFE SCIENCES/MOLECULAR PROBES) in EMEM growth medium without serum for 90 min. Excess dye was removed by washing the flask with EMEM/10% FBS and cells were exposed to 10% serum containing medium for 1.5 h for dye conversion. The cells were then washed with PBS and released from the flask with 0.05% trypsin. Cells were recovered and trypsin removed by centrifugation at 500×g followed by washing in PBS/0.5% BSA/2 mM EDTA. […]

[1] = test system: primary cells from voided urine; test: Capture of primary cells from voided urine on peptide coated glass slide; type: cell-based, human; conditions: for Number of captured basal and intermediate cells/peptide coated area / Number of captured superficial and squamous cells/peptide coated area: cells from 40 mL voided urine, entire peptide coated area 2.67 cm^2, H&E, bright field; for peptide selectivity: preferential capture of cell type: primary cells from voided urine
Description: (§2) Peptides were synthesized in a conjugatable format for unidirectional conjugation to glass. Peptides were attached to glass through a covalent bond formed between the lysine on C-terminus of the peptide and an N-Hydroxysuccinimide (NHS) group on the glass. Briefly, microscope glass slides functionalized with NHS groups ((MICROSURFACES, Inc)) were incubated with peptide solution at 200 μM for 2 hours at 30° C., ˜75% RH. At the end of the incubation the slides were washed 3 times for 5 min in washing buffer (1×PBS, 0.05% Tween 20) and subsequently deactivated in deactivation solution (MICROSURFACES, Inc) for 30 min at 30° C., ˜75% RH to deactivate any remaining uncoupled NHS groups. Eventually slides were washed twice for 5 min in washing buffer prior to being blocked for 1 hour in blocking buffer (PBS, 0.5% BSA, 2 mM EDTA).
(§3) Microscope glass slides with discrete areas functionalized with peptide were used as diagnostic cell capture devices as shown in FIG. 1. Cells used were cultured cell lines established from human transitional bladder carcinomas (J82, ATCC HTB-1 and T24, ATCC HTB-4), cells isolated from voided urine of healthy donors (primary cells), a cultured cell line established from human thyroid carcinoma (SW579) or white blood cells (WBC) obtained from human whole blood by lysing red blood cells.
(§4) Cell suspension was prepared in cell capture buffer (PBS, 0.5% BSA, 2 mM EDTA, 0-200 mM glucose) and applied directly to a peptide functionalized slide in which peptide was attached to a glass slide using the N-Hydroxysuccinimide chemistry described in Example 4 with a pipetting device. The cells were incubated on the slide for 15 min and then drained by tipping the slide to the side. The slides were washed by dipping in wash buffer (PBS, 0.5% BSA, 2 mM EDTA) to wash away unbound cells. Slides were fixed in paraformaldehyde, dried, stained (H&E) and cover slipped for microscopic examination in a bright field. For fluorescent microscopy the cells were labeled with fluorescent dyes (CELLTRACKER Green or Red; LIFE TECHNOLOGIES, INC) prior to applying to the slide. Following the 15 min incubation the slides were washed, fixed, dried and mounted with a fluorescent mounting medium for microscopic examination in a dark field.
(§5) Selective capture of urothelial cells, J82, was achieved from a mixture of J82 and white blood cells (WBC) on a peptide coated glass slide using cell binding peptides of the present disclosure. In this Example, peptides were synthesized with a C-terminal Peg10 spacer followed by a lysine and conjugated to the glass slide according to Example 4.
In another experiment, primary cells from voided urine were selectively captured onto peptide coated glass slides. Specifically, cells were isolated from 40 mL of voided urine from a second morning void and applied to a glass slide with a discrete area coated with peptide. Cells were visualized by H&E staining and counted in a bright field. Results are presented in Table 3 below as a cell number per the entire peptide coated area (2.67 cm^2). […] The sample adequacy criterion for urine cytology is at least 15 well visualized basal or intermediate cells^1.

[2] = test system: J82 urothelial cancer cells; test: Selective capture of J82 urothelial cells from a mixture of J82 and white blood cells on peptide coated glass slide; type: cell-based, human
Description: as §2, §3, §4, §5
The cell binding peptides used in a first experiment were SEQ ID NO: 1, SEQ ID NO: 2, SEQ ID NO: 3, and SEQ ID NO: 4. […] Human WBC and J82 cells were labeled with different CELLTRACKER dyes, mixed at a 1 to 1 ratio and applied to a slide with discrete areas coated with peptides. The slide was washed of unbound cells and captured cells were counted under a fluorescent microscope. Data are presented in FIGS. 5A & 5B as cell number per microscope field at 100× magnification averaged from 10 fields. The slide area not coated with peptide was used as a negative control. Preferential capture of J82 urothelial cells was observed leading to depletion of WBC up to 85%. […] Thus the degree of WBC removal from the diagnostic sample can be controlled by using a peptide most suitable for the application. For example, in some circumstances the presence of some WBCs on the slide may provide valuable clinical information.
In another experiment, selective capture of urothelial cancer cells, J82, was achieved from a mixture of J82 and WBC on a peptide coated glass slide using peptides SEQ ID NO: 5, SEQ ID NO: 6, and SEQ ID NO: 7. […] Human WBC and J82 cells were labeled with different CELLTRACKER dyes, mixed at 7 to 1 ratio and applied to a slide with discrete areas coated with peptides. The slide was washed of unbound cells and captured cells were counted under a fluorescent microscope. […]

[3] = test system: SW579 thyroid cancer cells; test: Selective capture of SW579 thyroid cells from a mixture of SW579 and WBC on peptide coated glass slide; type: cell-based, human; conditions: WBC:SW579 1 to 1; compared with SEQ ID NO: 4 and SEQ ID NO: 1
Description: as §2
Microscope glass slides with discrete areas functionalized with peptide were used as diagnostic cell capture devices as shown in FIG. 1. […]
In a first experiment peptides SEQ ID NO: 1, SEQ ID NO: 2, SEQ ID NO: 3 and SEQ ID NO: 4 were tested and peptide SEQ ID NO: 10 was used as a positive control. […] The slide was washed of unbound cells and captured cells were counted under a fluorescent microscope. […]

thyroid cancer cells = test: Selective capture of thyroid cancer cells spiked with whole blood on peptide coated slide; type: cell-based, human; conditions: H&E staining, 200x
Description: as §3
as §4, with “Following the 15 min incubation the slides were washed, fixed, dried and mounted with a fluorescent mounting medium for microscopic examination in a dark field.” left out

[4] = test system: J82 urothelial cancer cells; test: Selective capture of J82 urothelial cancer cells from voided urine spiked with whole blood on peptide coated slide; type: cell-based, human; conditions: voided urine spiked with whole blood and J82 cells; H&E staining, 100x
Description: as §3
as §4, with “The” for “Cell suspension was prepared in cell capture buffer (PBS, 0.5% BSA, 2 mM EDTA, 0-200 mM glucose) and applied directly to a peptide functionalized slide in which peptide was attached to a glass slide using the N-Hydroxysuccinimide chemistry described in Example 4 with a pipetting device. The”
In this Example, peptides were synthesized with a C-terminal Peg10 spacer followed by a lysine and conjugated to the glass slide according to Example 4.
In another experiment urothelial cancer cells from voided urine were selectively captured using peptide SEQ ID NO: 5. […]

[5] = J82 (100, 500 or 1000 cells) and WBC mixed 1:72, 15 min incubation
[6] = WBC:J82 1 to 1, compared with SEQ ID NO: 1 and SEQ ID NO: 4
[7] = WBC:J82 7 to 1, compared with SEQ ID NO: 7

Sequence: SFCPSNHDCIDWFIRSR [SEQ ID NO: 10, used as positive control in the thyroid test]
- J82 bladder tumor cells (J82 bladder cancer cells): 53.6
- Enrichment Factor (J82 bladder cancer cells): 588
- Total Blood Leukocytes (blood leukocytes): 0.09

Sequence: SSFGSDCSPWGCEWVPVSR [SEQ ID NO: 4]
- Number of captured basal and intermediate cells/peptide coated area [1]: 21 cells/peptide coated area
- Number of captured superficial and squamous cells/peptide coated area [1]: 6 cells/peptide coated area
- peptide selectivity: preferential capture of cell type [1]: deep urothelial cells

Sequence: SSFSNYDSPWGPNWSVISR [SEQ ID NO: 1]
- J82 bladder tumor cells (J82 bladder cancer cells): 48.2
- Enrichment Factor (J82 bladder cancer cells): 463
- Total Blood Leukocytes (blood leukocytes): 0.1

Sequence: SSIEDLPKDWPLFGWMSSR [SEQ ID NO: 2]
- depletion of WBCs from the input material [2, 5]: 86%
- reduction in WBCs relative to urothelial cells [2, 5]: 7.6 fold
- capture selectivity (WBC to J82 end ratio) [2, 6]: more selective
- capture selectivity (WBC to SW579 end ratio) [3]: more selective

Sequence: SSLESVKEPWGPGWIPVSR [SEQ ID NO: 3]
- selective capture of thyroid cancer cells, slide washed (thyroid cancer cells): Blood cells are washed away and thyroid cells retained
- capture selectivity (WBC to J82 end ratio) [2, 6]: more selective
- capture selectivity (WBC to SW579 end ratio) [3]: more selective

Sequence: SSVALSFQAVPYDFHSSR [SEQ ID NO: 5]
- selective capture of urothelial cancer cells, slide washed [4]: Blood cells are washed away and urothelial cells retained
- Number of captured basal and intermediate cells/peptide coated area [1]: 40 cells/peptide coated area
- Number of captured superficial and squamous cells/peptide coated area [1]: 19 cells/peptide coated area
- peptide selectivity: preferential capture of cell type [1]: deep urothelial cells
- capture selectivity (WBC to J82 end ratio) [2, 7]: more selective

Sequence: SSVQHAYQAWPGLGAYTSR [SEQ ID NO: 6]
- Number of captured basal and intermediate cells/peptide coated area [1]: 5 cells/peptide coated area
- Number of captured superficial and squamous cells/peptide coated area [1]: 35 cells/peptide coated area
- peptide selectivity: preferential capture of cell type [1]: superficial and squamous cells
- capture selectivity (WBC to J82 end ratio) [2, 7]: more selective

From patent US9279810B2, “Cell binding peptides for diagnosis and detection” (Affinergy, LLC, priority 2013, dated 2016)
